Like-named read-outs stand apart in the source and are kept apart here.
Details: in vivo
Protocol: Patients were considered evaluable for safety if they received ≥1 injection of the study drug. All adverse events (AEs) were graded per the National Cancer Institute’s Common Terminology Criteria for Adverse Events (CTCAE) version 4.03.
Grade ≤3 drug-related fever or skin or SC tissue disorders localised to the site of injection—including grade ≤3 rash, pruritus, skin induration or pain—were not considered DLTs.
Data for patients with NC and lymphoma were evaluated but not included in the MTD determination.

Structure (SMILES): Cc1sc2c(c1C)C(c1ccc(Cl)cc1)=N[C@@H](CC(=O)NCCCN1CCN(C)CC1)c1nnc(C)n1-2 [RO6870810]
- Treatment-emergent AE: Injection site induration (human, 0.06 mg/kg): 0 n (%)
- Treatment-emergent AE: Injection site pain (human, 0.06 mg/kg): 1 (33.3) n (%)
- Treatment-emergent AE: Injection site pruritus (human, 0.06 mg/kg): 1 (33.3) n (%)
- Treatment-emergent AE: Injection site reaction (human, 0.06 mg/kg): 0 n (%)
- Treatment-emergent AE: Injection site swelling (human, 0.06 mg/kg): 0 n (%)
- Treatment-emergent AE: Malaise (human, 0.06 mg/kg): 1 (33.3) n (%)
- Treatment-emergent AE: Myalgia (human, 0.06 mg/kg): 0 n (%)
- Treatment-emergent AE: Nausea (human, 0.06 mg/kg): 0 n (%)
- Treatment-emergent AE: Thrombocytopenia (human, 0.06 mg/kg): 0 n (%)
- Treatment-emergent AE: Vomiting (human, 0.06 mg/kg): 0 n (%)
- Treatment-emergent AE: Abdominal pain (human, 0.1 mg/kg): 1 (25.0) n (%)
- Treatment-emergent AE: Anemia (human, 0.1 mg/kg): 2 (50.0) n (%)
- Treatment-emergent AE: Back pain (human, 0.1 mg/kg): 2 (50.0) n (%)
- Treatment-emergent AE: Blood bilirubin increased (human, 0.1 mg/kg): 1 (25.0) n (%)
- Treatment-emergent AE: Constipation (human, 0.1 mg/kg): 3 (75.0) n (%)
- Treatment-emergent AE: Cough (human, 0.1 mg/kg): 1 (25.0) n (%)
- Treatment-emergent AE: Decreased appetite (human, 0.1 mg/kg): 4 (100) n (%)
- Treatment-emergent AE: Dehydration (human, 0.1 mg/kg): 2 (50.0) n (%)
- Treatment-emergent AE: Diarrhea (human, 0.1 mg/kg): 3 (75.0) n (%)
- Treatment-emergent AE: Dizziness (human, 0.1 mg/kg): 2 (50.0) n (%)
- Treatment-emergent AE: Dry mouth (human, 0.1 mg/kg): 1 (25.0) n (%)
- Treatment-emergent AE: Dysgeusia (human, 0.1 mg/kg): 0 n (%)
- Treatment-emergent AE: Dyspnea (human, 0.1 mg/kg): 1 (25.0) n (%)
- Treatment-emergent AE: Fatigue (human, 0.1 mg/kg): 3 (75.0) n (%)
- Treatment-emergent AE: Headache (human, 0.1 mg/kg): 1 (25.0) n (%)
- Treatment-emergent AE: Hypomagnesaemia (human, 0.1 mg/kg): 0 n (%)
- Treatment-emergent AE: Injection site erythema (human, 0.1 mg/kg): 2 (50.0) n (%)
- Treatment-emergent AE: Injection site induration (human, 0.1 mg/kg): 3 (75.0) n (%)
- Treatment-emergent AE: Injection site pain (human, 0.1 mg/kg): 1 (25.0) n (%)
- Treatment-emergent AE: Injection site pruritus (human, 0.1 mg/kg): 0 n (%)
- Treatment-emergent AE: Injection site reaction (human, 0.1 mg/kg): 0 n (%)
- Treatment-emergent AE: Injection site swelling (human, 0.1 mg/kg): 1 (25.0) n (%)
- Treatment-emergent AE: Malaise (human, 0.1 mg/kg): 1 (25.0) n (%)
- Treatment-emergent AE: Myalgia (human, 0.1 mg/kg): 1 (25.0) n (%)
- Treatment-emergent AE: Nausea (human, 0.1 mg/kg): 2 (50.0) n (%)
- Treatment-emergent AE: Thrombocytopenia (human, 0.1 mg/kg): 0 n (%)
- Treatment-emergent AE: Vomiting (human, 0.1 mg/kg): 4 (100) n (%)
- Treatment-emergent AE: Abdominal pain (human, 0.2 mg/kg): 1 (25.0) n (%)
- Treatment-emergent AE: Anemia (human, 0.2 mg/kg): 0 n (%)
- Treatment-emergent AE: Back pain (human, 0.2 mg/kg): 1 (25.0) n (%)
- Treatment-emergent AE: Blood bilirubin increased (human, 0.2 mg/kg): 1 (25.0) n (%)
- Treatment-emergent AE: Constipation (human, 0.2 mg/kg): 1 (25.0) n (%)
- Treatment-emergent AE: Cough (human, 0.2 mg/kg): 0 n (%)
- Treatment-emergent AE: Decreased appetite (human, 0.2 mg/kg): 3 (75.0) n (%)
- Treatment-emergent AE: Dehydration (human, 0.2 mg/kg): 0 n (%)
- Treatment-emergent AE: Diarrhea (human, 0.2 mg/kg): 1 (25.0) n (%)
- Treatment-emergent AE: Dizziness (human, 0.2 mg/kg): 1 (25.0) n (%)
- Treatment-emergent AE: Dry mouth (human, 0.2 mg/kg): 1 (25.0) n (%)
- Treatment-emergent AE: Dysgeusia (human, 0.2 mg/kg): 1 (25.0) n (%)
- Treatment-emergent AE: Dyspnea (human, 0.2 mg/kg): 2 (50.0) n (%)
- Treatment-emergent AE: Fatigue (human, 0.2 mg/kg): 2 (50.0) n (%)
- Treatment-emergent AE: Headache (human, 0.2 mg/kg): 1 (25.0) n (%)
- Treatment-emergent AE: Hypomagnesaemia (human, 0.2 mg/kg): 0 n (%)
- Treatment-emergent AE: Injection site erythema (human, 0.2 mg/kg): 3 (75.0) n (%)
- Treatment-emergent AE: Injection site induration (human, 0.2 mg/kg): 2 (50.0) n (%)
- Treatment-emergent AE: Injection site pain (human, 0.2 mg/kg): 2 (50.0) n (%)
- Treatment-emergent AE: Injection site pruritus (human, 0.2 mg/kg): 1 (25.0) n (%)
- Treatment-emergent AE: Injection site reaction (human, 0.2 mg/kg): 0 n (%)
- Treatment-emergent AE: Injection site swelling (human, 0.2 mg/kg): 2 (50.0) n (%)
- Treatment-emergent AE: Malaise (human, 0.2 mg/kg): 1 (25.0) n (%)
- Treatment-emergent AE: Myalgia (human, 0.2 mg/kg): 0 n (%)
- Treatment-emergent AE: Nausea (human, 0.2 mg/kg): 2 (50.0) n (%)
- Treatment-emergent AE: Thrombocytopenia (human, 0.2 mg/kg): 0 n (%)
- Treatment-emergent AE: Vomiting (human, 0.2 mg/kg): 2 (50.0) n (%)
- Treatment-emergent AE: Abdominal pain (human, 0.3 mg/kg): 1 (16.7) n (%)
- Treatment-emergent AE: Anemia (human, 0.3 mg/kg): 2 (33.3) n (%)
- Treatment-emergent AE: Back pain (human, 0.3 mg/kg): 0 n (%)
- Treatment-emergent AE: Blood bilirubin increased (human, 0.3 mg/kg): 1 (16.7) n (%)
- Treatment-emergent AE: Constipation (human, 0.3 mg/kg): 0 n (%)
- Treatment-emergent AE: Cough (human, 0.3 mg/kg): 0 n (%)
- Treatment-emergent AE: Decreased appetite (human, 0.3 mg/kg): 6 (100) n (%)
- Treatment-emergent AE: Dehydration (human, 0.3 mg/kg): 2 (33.3) n (%)
- Treatment-emergent AE: Diarrhea (human, 0.3 mg/kg): 2 (33.3) n (%)
- Treatment-emergent AE: Dizziness (human, 0.3 mg/kg): 1 (16.7) n (%)
- Treatment-emergent AE: Dry mouth (human, 0.3 mg/kg): 2 (33.3) n (%)
- Treatment-emergent AE: Dysgeusia (human, 0.3 mg/kg): 1 (16.7) n (%)
- Treatment-emergent AE: Dyspnea (human, 0.3 mg/kg): 0 n (%)
- Treatment-emergent AE: Fatigue (human, 0.3 mg/kg): 2 (33.3) n (%)
- Treatment-emergent AE: Headache (human, 0.3 mg/kg): 3 (50.0) n (%)
- Treatment-emergent AE: Hypomagnesaemia (human, 0.3 mg/kg): 1 (16.7) n (%)
- Treatment-emergent AE: Injection site erythema (human, 0.3 mg/kg): 3 (50.0) n (%)
- Treatment-emergent AE: Injection site induration (human, 0.3 mg/kg): 2 (33.3) n (%)
- Treatment-emergent AE: Injection site pain (human, 0.3 mg/kg): 2 (33.3) n (%)
- Treatment-emergent AE: Injection site pruritus (human, 0.3 mg/kg): 2 (33.3) n (%)
- Treatment-emergent AE: Injection site reaction (human, 0.3 mg/kg): 0 n (%)
- Treatment-emergent AE: Injection site swelling (human, 0.3 mg/kg): 2 (33.3) n (%)
- Treatment-emergent AE: Malaise (human, 0.3 mg/kg): 1 (16.7) n (%)
- Treatment-emergent AE: Myalgia (human, 0.3 mg/kg): 3 (50.0) n (%)
- Treatment-emergent AE: Nausea (human, 0.3 mg/kg): 3 (50.0) n (%)
- Treatment-emergent AE: Thrombocytopenia (human, 0.3 mg/kg): 1 (16.7) n (%)
- Treatment-emergent AE: Vomiting (human, 0.3 mg/kg): 2 (33.3) n (%)
- Treatment-emergent AE: Injection site swelling (human, 0.65 mg/kg): 0 n (%)
- Recommended phase 2 dose (human, sc): 0.65 mg/kg
- DLTs due to thrombocytopenia: no DLTs due to thrombocytopenia
- Left ventricular ejection fraction after reduction: 45–50%

Reference: PMC7884382, “A Phase 1 study of RO6870810, a novel bromodomain and extra-terminal protein inhibitor, in patients with NUT carcinoma, other solid tumours, or diffuse large B-cell lymphoma” (British Journal of Cancer, 2020)
